From article PMC7762659, “Phenolic Compounds from Polygonum chinense Induce Growth Inhibition and Apoptosis of Cervical Cancer SiHa Cells” (BioMed Research International, 2020)
Where two headings read alike, the source gives them in different places.

How the values were obtained:
Assay type in all cases: cell-based, human
SiHa cells = experiment: CCK8 antiproliferative activity assay on SiHa cells; details: 48 h, read-out: IC50, antiproliferation activity on SiHa cells (PC phenolics)
Experimental: (§1) The SiHa cell line was obtained from American Type Culture Collection (ATCC, Manassas, Virginia, VA, USA); HcerEpic cell was obtained from ScienCell (San Diego, Los Angeles, LA, USA). The cells were maintained in medium RP1640 containing 10% FBS, high glucose DMEM cultured with 100 U/ml of penicillin, and 100 U/ml of streptomycin, in a humidified CO2 (5%) incubator at 37°C. All reagents for cell cultures were purchased from Invitrogen (Carlsbad, California, CA, USA).
(§2) SiHa and HcerEpic cells were cultured in 96-well plates at approximately 7.5 × 10^3 cells per well and incubated for 12 h. Then, cells were treated with different concentrations of PC extracts (5, 10, 25, 50, and 100 μg/mL) or seven PC PHE (10, 20, 40, 60, and 80 μM). After incubation of 48 h, then 10 μL CCK8 reagent added per hole, placed in the incubator 2 h, incubation, enzyme standard instrument determination at 450 nm absorbance (OD value).
(§3) Cell vitality∗(%) = [A (dosing) − A (blank)]/[A dosing (O) − A (blank)] × 100%A (dosing): OD values of Wells with cell, CCK8 solution, and drug solution.
(§4) A (blank): OD values of Wells with medium, CCK8 solution, and no cells.
(§5) A (0 dosing): OD values of Wells with cell and CCK8 solution but no drug solution.

HcerEpic cells = experiment: CCK8 antiproliferative activity assay on HcerEpic cells; details: 48 h, read-out: IC50, antiproliferation activity on HcerEpic cells (PC phenolics)
Experimental: as §1, §2, §3, §4, §5

[1] = tested on: P53, Bax, Bcl-2, caspase 3, caspase 9 in SiHa cells; experiment: Western blot of apoptosis-related proteins in SiHa cells; details: SiHa cells, 25, 50, 75 μM, 48 h, compared with control
Experimental: We followed the Western blot methods of Tu et al. 2020 [24]. […] The culture was terminated after 48 h. Then, cells were collected and proteins were extracted with RIPA lysis buffer containing a protease inhibitor cocktail. The total protein concentrations were measured using the Bradford method, and the normalized protein samples were added to 4 sample buffer, then boiled and denatured. Equal amounts of proteins were separated by SDS-PAGE and then transferred to nitrocellulose membranes. The membranes were blocked and then probed with indicated primary antibodies, respectively, with anti-P53 (1 : 1000), anti-Bax (1 : 1000), anti-Bcl-2 (1 : 1000), anti-caspase 3 (1 : 2500), anti-caspase 9 (1 : 2500), anti-cleaved-caspase 3 (1 : 1000), and anti-cleaved-caspase 9 (1 : 1000), at 4°C overnight. Antibodies were purchased from Abcam (Santa Cruz, California, CA, USA); others were from Cell Signaling Technology (Cell Signaling, Danvers, Massachusetts, MA, USA). All antibodies were diluted with 5% BSA in TBST buffer. The blots were rinsed and then incubated with secondary antibodies (anti-mouse antibody or anti-rabbit antibody, 1 : 5000, Cell Signaling Technology). Reactive bands were visualized using ECL (Thermo Fisher Scientific; Waltham, MA, USA) and then calibrated by ChemiDoc Imaging System (Bio-Rad; Hercules, California, CA, USA).

| Compound | IC50 (SiHa cells) | IC50 (HcerEpic cells) | IC50 (SiHa cells; Homo sapiens, SiHa) | IC50 (HcerEpic cells; Homo sapiens) | expression level of Bcl-2 protein [1] | expression level of Caspase3 protein [1] | expression level of Csapase9 protein [1] | expression level of P53 protein [1] |
| --- | --- | --- | --- | --- | --- | --- | --- | --- |
| Citrate acid | > 100 µM | > 100 µM |  |  |  |  |  |  |
| O=C(/C=C/c1ccc(O)c(O)c1)O[C@@H]1C[C@](O)(C(=O)O)C[C@@H](O)[C@H]1O [Chlorogenic acid] |  |  | > 100 µM | > 100 µM |  |  |  |  |
| O=C(O[C@@H]1O[C@@H]2COC(=O)c3cc(O)c(O)c(O)c3-c3c(cc(O)c(O)c3O)C(=O)O[C@H]([C@H]1O)[C@@H]2O)c1cc(O)c(O)c(O)c1 [Corilagin] |  |  | 28.7 µM | > 100 µM | downregulated | significantly upregulated | significantly upregulated | significantly upregulated |
| O=C1CC(C(=O)O)c2c1oc(=O)c1cc(O)c(O)c(O)c21 (stereo not shown) [Brevifolin carboxylic acid] | > 100 µM | > 100 µM |  |  |  |  |  |  |
| O=C(O)C[C@@H]1C(=O)O[C@H]2[C@@H]3OC(=O)c4cc(O)c(O)c(O)c4-c4c(cc(O)c(O)c4O)C(=O)OC[C@H]2O[C@@H](OC(=O)c2cc(O)c(O)c(O)c2)[C@@H]3OC(=O)c2cc(O)c(O)c3c2[C@H]1[C@H](O)C(=O)O3 [Chebulagic acid] |  |  | > 100 µM | > 100 µM |  |  |  |  |
| O=c1oc2c(O)c(O)cc3c(=O)oc4c(O)c(O)cc1c4c23 [Ellagic acid] |  |  | 21.5 µM | > 100 µM | downregulated | significantly upregulated | significantly upregulated | significantly upregulated |
| O=C(O)c1cc(O)c(O)c(O)c1 [Gallic acid] |  |  | > 100 µM | > 100 µM |  |  |  |  |
